Where two headings read alike, the source gives them in different places.
Columns and labels:
ACE (rabbit lung) = assay: ACE inhibitory assay screening (FAPGG substrate, absorbance at 345 nm); assay type: biochemical; settings: peptide 40 μM; 0.5 mM FAPGG in 50 mM Tris-HCl pH 7.5, 0.3 M NaCl; 90 sec, room temperature
Method: The ACE inhibitory activity was measured following the previous reports with some modifications (Hsu et al. [2002]). Each synthesized peptide was dissolved in DMSO to 4 mM as stocks. The 1 ml, 0.5 mM FAPGG (dissolved in 50 mM Tris–HCl buffer, pH 7.5, containing 0.3 M NaCl) was mixed with 12.2 μl peptide solution, and then twenty μl ([…]) of commercial ACE (stock solution, 1U/ ml) was added. The 0.1% DMSO solution was used instead of sample solution for blank experiments (ΔAblank/min). The decreased absorbance at 345 nm (ΔAsample/min) was recorded during 90 sec at room temperature. The ACE inhibition (%) was calculated as followed: [1 - (ΔAsample/min ÷ ΔAblank/min)] × 100.
Figure 1 ACE inhibition by 23 synthesized peptides (40 μM) derived from a computer-aided simulation of pepsin hydrolysis of yam dioscorin. The 0.1% DMSO solution was used instead of sample solution for blank experiments (ΔAblank/min). The decreased absorbance at 345 nm (ΔAsample/min) was recorded during 90 sec at room temperature. The ACE inhibition (%) was calculated as followed: [1 - (ΔAsample/min ÷ ΔAblank/min)] × 100. The synthesized peptides included (1) KTCGNGME, (2) PPCSE, (3) CDDRVIRTPLT, (4) KTCGY, (5) PPCTE, (6) RDNGVIF, (7) KRIHF, (8) RRDY, (9) RSVF, (10) PTNF, (11) GISW, (12) MGSF, (13) VSIL, (14) HSPA, (15) DPF, (16) RY, (17) RF, (18) NW, (19) RL, (20) GVI, (21) GSL, (22) SY, and (23) GPA. […]

[1] = test system: endothelium-intact rat thoracic aortic rings; assay: Relaxation of phenylephrine-induced tension in endothelium-intact rat thoracic aortic rings ex vivo; parameters: species or system Sprague-Dawley rat
Method: (§1) Effects of four peptides and captopril on vascular tension were examined following the previous method (Wang et al. [2001]). Male Sprague–Dawley rats were killed by decapitation, and sections of the thoracic aorta between the aortic arch and the diaphragm were excised carefully and placed in a Petri dish with oxygenated Krebs’ buffer (120 mM NaCl, 4.5 mM KCl, 2.5 mM CaCl2, 1 mM MgSO4, 27 mM NaHCO3, 1 mM KH2PO4, 10 mM glucose, pH 7.4, with 95% O2, 5% CO2) and gently dissected free of fat and connective tissue. The endothelium was removed by gently rubbing the intimal layer of the vessel with a wire. The isolated aortic rings, 3 to 4 mm in length with or without the endothelium, were fixed isometrically in organ chambers under passive tension (1.8 g) for 60 min. Changes in vascular tension were recorded with a polygraph (Gould, model 2400, Valley View, OH, USA) via a force displacement transducer (Grass FT03, Quincy, MA, USA). After equilibration, the near maximal concentration was induced by PE (0.3 μM). When the rings achieved a stable tension, the acetylcholine (3 μM) was added to the bath to assess endothelial integrity. The relaxing effects of KTCGY, KTCGYKTCGY, TCGYTCGY, KRIHF, and captopril on PE (0.3 μM) pre-contracted endothelium-intact or endothelium-denuded aortic rings were examined. When PE treatments reached a steady plateau (considered as 100%), KTCGY, KTCGYKTCGY, TCGYTCGY, KRIHF, and captopril were then tested at cumulative concentrations (0.1 to 100 μM) for their ability to induce aortic ring relaxations.
(§2) Figure 2 Vasorelaxing activity of endothelium-intact and endothelium-denuded SD rat aortic rings in phenylephrine-induced tensions. (A) KTCGY, (B) KTCGYKTCGY, (C) TCGYTCGY, (D) KRIHF, and (E) captopril on Data were expressed as mean ± S.E.

[2] = test system: endothelium-denuded rat thoracic aortic rings; assay: Relaxation of phenylephrine-induced tension in endothelium-denuded rat thoracic aortic rings ex vivo; parameters: species or system Sprague-Dawley rat; settings: PE 0.3 μM; for aortic ring relaxation in endothelium-denuded rings (in words): cumulative 0.1 to 100 μM; for PE-induced endothelium-denuded aortic ring tension (PE plateau = 100%): 100 μM test substance, endothelium-denuded rings
Method: as §1, §2

[3] = test system: spontaneously hypertensive rats (SHRs); assay: Antihypertensive effect in SHRs after a single oral administration (tail-cuff blood pressure); assay type: in vivo, rat; settings: SHR, N = 6
Method: Experimental procedures were reviewed and approved by the Institutional Animal Care and Use Committee of Taipei Medical University (LAC-95-0076, LAC-97-0117, and LAC-100-0038). Male SHRs (18–28 weeks old; from National Laboratory Animal Center, Taipei, Taiwan) were housed individually in steel cages kept at 24°C under a 12-h light–dark cycle, with free access to water and a standard mouse/rat chow (Prolab® RMH2500, 5P14 Diet, PMI Nutrition International Brentwood, MO, USA). SHRs were randomly divided into 4 groups (N = 6 of each group), KTCGY or KRIHF at concentration of 10 mg/kg and 20 mg/kg was orally administered to the SHRs, and the SBP were measured after 0, 2, 4, 6, 8, and 24 h by using an indirect tail-cuff blood pressure meter (BP98-A, Softron, Tokyo, Japan). Distilled water (0.5 ml) was administered to the SHRs in the blank group. The captopril (10 mg/kg) was used as the positive control.
Figure 3 Antihypertensive activity of (A) KTCGY and (B) KRIHF on systolic blood pressure of spontaneously hypertensive rats (SHRs). KTCGY or KRIHF at concentration of 10 mg/kg and 20 mg/kg was orally administered to the SHRs (6 rats/group), and the SBP were measured after 0, 2, 4, 6, 8, and 24 h by using an indirect tail-cuff blood pressure meter (BP98-A, Softron, Tokyo, Japan). Distilled water (0.5 ml) was administered to the SHRs in the blank group. The captopril (10 mg/kg) was used as the positive control.

[4] = test system: spontaneously hypertensive rats (SHRs); assay: as above; assay type: in vivo, rat; settings: 10 and 20 mg/kg single oral dose, SHR; data not shown
[5] = trolox equivalents (TE); ref Hernández-Ledesma et al. 2005; cited from earlier work
ACE = settings: read-out: ACE inhibition IC50, cited from earlier work
Source text: (§3) The untreated high blood pressure is considered to be the central factor in stroke which accounts approximately 33% deaths (Mark and Davis [2000]). There are several classes of pharmacological agents which have been used in the treatment of hypertension, and one class of antihypertensive drugs known as angiotensin I converting enzyme (ACE) inhibitors is associated with a low rate of adverse side effects and is the preferred class of antihypertensive agents when treating patients with concurrent secondary diseases or cardiovascular diseases (Zaman et al. [2002]).

[6] = test system: spontaneously hypertensive rats (SHRs); settings: ref Fujita et al. 2000; cited from earlier work
Source text: as §3, with “[2002]). ACE (peptidyldipeptide hydr ...” for “[2002]).”

[7] = 100 μM test substance, PE 0.3 μM, endothelium-intact rings, mean ± S.E. (Figure 2), SEM

Compound: KTCGY [penta-peptide, residues 52–56 of dioscorin B]
- ACE inhibition (%) (ACE (rabbit lung)): higher than 50%
- PE-induced aortic ring tension (PE plateau = 100%) [1, 7]: 26.97 ± 7.48%
- aortic ring relaxation in endothelium-denuded rings (in words) [2]: not endothelium-denuded
- average reduced SBP ([3]; 10 mg/kg single oral dose, 6-h): 24.17 mmHg
- average reduced SBP ([3]; 10 mg/kg single oral dose, 8-h): 11.93 mmHg
- average reduced SBP ([3]; 20 mg/kg single oral dose, 2-h): 24.20 mmHg
- average reduced SBP ([3]; 20 mg/kg single oral dose, 4-h): 26.24 mmHg
- average reduced SBP ([3]; 20 mg/kg single oral dose, 6-h): 31.03 mmHg
- average reduced SBP ([3]; 20 mg/kg single oral dose, 8-h): 21.40 mmHg
- lowering of diastolic blood pressure (in words) [4]: not diastolic blood pressure

Compound: KRIHF [penta-peptide, residues 118–122 of dioscorin A and dioscorin B]
- ACE inhibition (%) (ACE (rabbit lung)): higher than 50%
- PE-induced aortic ring tension (PE plateau = 100%) ([1]; 10 μM test substance, PE 0.3 μM, endothelium-intact rings): 80.26 ± 7.82%
- PE-induced aortic ring tension (PE plateau = 100%) [1, 7]: 19.19 ± 7.63%
- aortic ring relaxation in endothelium-denuded rings (in words) [2]: not endothelium-denuded
- average reduced SBP ([3]; 10 mg/kg single oral dose, 2-h): 17.30 mmHg
- average reduced SBP ([3]; 10 mg/kg single oral dose, 4-h): 21.95 mmHg
- average reduced SBP ([3]; 10 mg/kg single oral dose, 6-h): 21.47 mmHg
- average reduced SBP ([3]; 10 mg/kg single oral dose, 8-h): 16.65 mmHg
- average reduced SBP ([3]; 20 mg/kg single oral dose, 2-h): 18.57 mmHg
- average reduced SBP ([3]; 20 mg/kg single oral dose, 4-h): 19.64 mmHg
- average reduced SBP ([3]; 20 mg/kg single oral dose, 6-h): 20.87 mmHg
- average reduced SBP ([3]; 20 mg/kg single oral dose, 8-h): 8.99 mmHg
- lowering of diastolic blood pressure (in words) [4]: not diastolic blood pressure

Compound: N[C@@H](Cc1c[nH]cn1)C(=O)O [His]
- oxygen radical absorbance capacity (ORAC) activity [5]: 0.073 μmole TE/μmole

Compound: N[C@@H](Cc1c[nH]c2ccccc12)C(=O)O [Trp]
- oxygen radical absorbance capacity (ORAC) activity [5]: 4.649 μmole TE/μmole

Compound: C[C@H](CS)C(=O)N1CCC[C@H]1C(=O)O [captopril, reference compound]
- PE-induced aortic ring tension (PE plateau = 100%) ([1]; 100 µM, SEM): 26.81 ± 5.54%
- aortic ring relaxation in endothelium-denuded rings (in words) [2]: not endothelium-denuded
- average reduced SBP ([3]; 10 mg/kg single oral dose, 2-h): 26.85 mmHg
- average reduced SBP ([3]; 10 mg/kg single oral dose, 4-h): 24.97 mmHg
- average reduced SBP ([3]; 10 mg/kg single oral dose, 6-h): 29.82 mmHg
- average reduced SBP ([3]; 10 mg/kg single oral dose, 8-h): 24 mmHg
- average reduced SBP ([3]; 10 mg/kg single oral dose, 24-h): 13.80 mmHg

Compound: FFGRCVSP
- IC50 (ACE; ref Fujita et al. 2000): 0.4 µM
- reduction of blood pressure in SHRs (in words) [6]: none of them were effective

Compound: ERKIKVYL
- IC50 (ACE; ref Fujita et al. 2000): 1.2 µM
- reduction of blood pressure in SHRs (in words) [6]: none of them were effective

Compound: KTCGYKTCGY [two-repeated KTCGY]
- PE-induced aortic ring tension (PE plateau = 100%) [1, 7]: 46.05 ± 8.02%
- PE-induced endothelium-denuded aortic ring tension (PE plateau = 100%) [2]: 66.59 ± 14.84%

Compound: RADHPF [ovokinin (2–7), hexa-peptide isolated from chymotryptic ovalbumin hydrolysates]
- IC50 (ACE; ref Matoba et al. 1999): > 1000 µM

Compound: N[C@@H](Cc1ccc(O)cc1)C(=O)O [Tyr]
- oxygen radical absorbance capacity (ORAC) activity [5]: 1.574 μmole TE/μmole

Compound: TCGYTCGY [two-repeated TCGY]
- PE-induced aortic ring tension (PE plateau = 100%) [1, 7]: 43.52 ± 6.42%
- PE-induced endothelium-denuded aortic ring tension (PE plateau = 100%) [2]: 74.44 ± 15.13%

Compound: CSCC[C@H](N)C(=O)O [Met]
- oxygen radical absorbance capacity (ORAC) activity [5]: 1.126 μmole TE/μmole

Compound: N[C@@H](Cc1ccccc1)C(=O)O [Phe]
- oxygen radical absorbance capacity (ORAC) activity [5]: 0.0025 μmole TE/μmole

Compound: N[C@@H](CS)C(=O)O [Cys]
- oxygen radical absorbance capacity (ORAC) activity [5]: 0.1492 μmole TE/μmole

— paper PMC5432742, “Vasorelaxing and antihypertensive activities of synthesized peptides derived from computer-aided simulation of pepsin hydrolysis of yam dioscorin” (Botanical Studies, 2014)
